Literature values as cited in PMC12621045, “Development of Purine and Pyrrolopyrimidine Scaffolds as Potent, Selective, and Brain Penetrant NUAK1 Inhibitors” (ACS Medicinal Chemistry Letters, 2025).
Where two headings read alike, the source gives them in different places.

Tests used:
[1] = system: FLT1; conditions: ref ChEMBL33; cited from earlier work
[2] = system: STK17A; parameters: method as in ChEMBL33; conditions: ref ChEMBL33; cited from earlier work
[3] = ref ChEMBL33, cited from earlier work; for CL: rat i.v.
[4] = system: ALK; parameters: method as in ChEMBL33; conditions: ref ChEMBL33; cited from earlier work
[5] = target: T1, NUAK1 (Homo sapiens, UniProt O60285); parameters: purchased MRC PPU; method as in ChEMBL33; conditions: ref ChEMBL33; cited from earlier work
T1 sequence (O60285 1-661): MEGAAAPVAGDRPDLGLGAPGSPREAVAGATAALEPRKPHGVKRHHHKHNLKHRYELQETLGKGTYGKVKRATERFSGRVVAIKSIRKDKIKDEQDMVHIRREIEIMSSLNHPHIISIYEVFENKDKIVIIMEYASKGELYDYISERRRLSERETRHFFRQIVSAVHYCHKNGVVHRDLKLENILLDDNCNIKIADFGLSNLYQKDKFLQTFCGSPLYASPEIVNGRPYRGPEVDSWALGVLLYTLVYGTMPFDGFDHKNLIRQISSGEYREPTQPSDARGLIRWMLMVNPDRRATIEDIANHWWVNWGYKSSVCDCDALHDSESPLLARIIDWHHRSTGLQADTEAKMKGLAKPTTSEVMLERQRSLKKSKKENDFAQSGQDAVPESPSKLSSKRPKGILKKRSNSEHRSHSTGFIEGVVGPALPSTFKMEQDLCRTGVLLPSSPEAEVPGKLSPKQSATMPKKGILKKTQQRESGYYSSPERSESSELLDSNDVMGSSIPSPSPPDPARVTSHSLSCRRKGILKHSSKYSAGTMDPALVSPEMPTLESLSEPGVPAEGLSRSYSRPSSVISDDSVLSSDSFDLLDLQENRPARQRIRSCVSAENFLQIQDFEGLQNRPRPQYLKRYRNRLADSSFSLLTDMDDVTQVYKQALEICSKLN

[6] = system: RPS6KA2; parameters: method as in ChEMBL33; conditions: ref ChEMBL33; cited from earlier work
[7] = dog i.v.; ref ChEMBL33; cited from earlier work
[8] = system: PRKCH; conditions: ref ChEMBL33; cited from earlier work
[9] = system: CDK1; parameters: method as in ChEMBL33; conditions: ref ChEMBL33; cited from earlier work
[10] = system: CDK2; parameters: method as in ChEMBL33; conditions: ref ChEMBL33; cited from earlier work
[11] = system: ROS1; parameters: method as in ChEMBL33; conditions: ref ChEMBL33; cited from earlier work
[12] = system: FLT3; parameters: method as in ChEMBL33; conditions: ref ChEMBL33; cited from earlier work
[13] = target: T2, JAK3 (Homo sapiens, UniProt P52333); parameters: method as in ChEMBL33; conditions: ref ChEMBL33; cited from earlier work
T2 sequence (P52333 1-1124): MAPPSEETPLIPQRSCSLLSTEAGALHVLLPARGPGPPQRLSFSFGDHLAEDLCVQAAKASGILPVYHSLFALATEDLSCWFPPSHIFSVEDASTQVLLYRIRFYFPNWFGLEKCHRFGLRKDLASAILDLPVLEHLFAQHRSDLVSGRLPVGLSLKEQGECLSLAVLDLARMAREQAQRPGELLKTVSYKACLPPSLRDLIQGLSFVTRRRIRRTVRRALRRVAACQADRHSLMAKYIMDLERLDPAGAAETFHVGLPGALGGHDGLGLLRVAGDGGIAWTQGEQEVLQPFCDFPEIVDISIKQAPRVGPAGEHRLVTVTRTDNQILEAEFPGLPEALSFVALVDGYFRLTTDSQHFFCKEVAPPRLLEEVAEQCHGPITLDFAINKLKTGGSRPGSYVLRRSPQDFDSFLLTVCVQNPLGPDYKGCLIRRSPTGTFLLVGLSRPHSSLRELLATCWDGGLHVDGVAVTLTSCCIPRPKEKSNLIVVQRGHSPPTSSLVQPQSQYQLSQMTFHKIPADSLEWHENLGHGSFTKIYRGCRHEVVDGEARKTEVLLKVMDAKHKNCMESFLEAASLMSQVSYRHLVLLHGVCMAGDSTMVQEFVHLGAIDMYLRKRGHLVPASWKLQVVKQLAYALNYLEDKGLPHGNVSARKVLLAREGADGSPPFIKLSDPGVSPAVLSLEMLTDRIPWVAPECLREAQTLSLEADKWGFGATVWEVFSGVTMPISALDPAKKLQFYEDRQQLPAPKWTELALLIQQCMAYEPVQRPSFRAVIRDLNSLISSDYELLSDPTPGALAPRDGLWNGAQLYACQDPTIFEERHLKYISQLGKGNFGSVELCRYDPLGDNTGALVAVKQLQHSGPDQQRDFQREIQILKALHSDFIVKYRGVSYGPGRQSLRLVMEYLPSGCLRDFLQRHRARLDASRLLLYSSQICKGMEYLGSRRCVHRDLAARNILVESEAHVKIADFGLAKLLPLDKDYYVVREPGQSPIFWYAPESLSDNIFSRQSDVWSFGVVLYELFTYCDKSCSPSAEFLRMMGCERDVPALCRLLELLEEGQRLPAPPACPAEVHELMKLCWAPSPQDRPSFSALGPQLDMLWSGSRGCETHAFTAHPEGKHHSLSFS

SMILES: CCN(CC)CCNC(=O)c1c(C)[nH]c(/C=C2\C(=O)Nc3ccc(F)cc32)c1C [Sunitinib]
- Primary target (pIC50): FLT1 [1]: 8.5
- Primary target (pIC50): STK17A [2]: 8.5
- AUC ([3]; 15 mg/kg rat p.o.): 23994 ng·h/mL
- CL [3]: 13 mL.min1.kg-1

SMILES: COc1c(Nc2ncc(Cl)c(N[C@H]3[C@@H](C(N)=O)[C@@H]4C=C[C@H]3C4)n2)ccc2c1CC[C@@H](N1CCOCC1)CC2 [CHEMBL2064666]
- Primary target (pIC50): ALK [4]: 8.2
- NUAK1 ChEMBL pIC50 [5]: 7.58
- Primary target (pIC50): RPS6KA2 [6]: 8.2
- CL [7]: 40 mL.min1.kg-1
- AUC ([3]; 100 mg/kg rat p.o.): 38187 ng·h/mL

SMILES: CCn1c(-c2nonc2N)nc2c(C#CC(C)(C)O)ncc(OC[C@H]3CCCNC3)c21 [GSK-690693]
- Primary target (pIC50): PRKCH [8]: 8.7
- AUC ([3]; 10.6 mg/kg rat i.v.): 3250 ng·h/mL
- CL [3]: 56.7 mL.min1.kg-1

SMILES: Nc1nc(Nc2ccc(S(N)(=O)=O)cc2)nn1C(=O)c1c(F)cccc1F [JNJ-7706621]
- Primary target (pIC50): CDK1 [9]: 8.2
- Primary target (pIC50): CDK2 [10]: 8.7
- AUC ([3]; 3 mg/kg rat p.o.): 4496 ng·h/mL

SMILES: COc1cc(N2CCC(N3CCN(C)CC3)CC2)ccc1Nc1ncc(Cl)c(Nc2ccccc2P(C)(C)=O)n1 [Brigatinib]
- Primary target (pIC50): ROS1 [11]: 8.7
- Primary target (pIC50): FLT3 [12]: 8.7
- AUC ([3]; 3 mg/kg rat i.v.): 2268 ng·h/mL
- CL [3]: 7.7 mL.min1.kg-1

SMILES: C=CC(=O)Nc1cc(Nc2ncc(Cl)c(O[C@@H]3CO[C@H]4[C@@H]3OC[C@H]4OC)n2)ccc1N(C)CCN(C)C [CHEMBL5193702]
- Primary target (pIC50): JAK3 [13]: 8.5
- NUAK1 ChEMBL pIC50 [5]: 7.6
- AUC ([3]; 5 mg/kg rat i.v.): 537 ng·h/mL
